System: Patients with allergic conjunctivitis
Test: Antigen instillation into the eye of patients with allergic conjunctivitis; itchiness of the eye scored in 9 levels, improvement rate versus base line
Format: in vivo, human
Settings: for improvement (%) of group with pre-administration: once a day for one week, antigen given 16 hr after last instillation; for improvement (%) of group with pre-administration / improvement (%) of group without pre-administration: itchiness 3 min later, proportion of patients with at least 1 point lower itchiness than base line; for improvement (%) of group without pre-administration: single instillation, antigen given 8 hr after instillation
Description: Patients with allergic conjunctivitis (3 groups, 30 patients per group) were instilled with an antigen into the eye. Three minutes later, itchiness of the eye was evaluated in 9 levels (0, 0.5, 1, 1.5, 2, 2.5, 3, 3.5, 4), and the average value (base line group) of itchiness was determined. A specific antigen was determined for each patient. […] At least one week was allowed to lapse from the test of Method 1, and FK506 eye drop (suspension) [0.03%, 0.06% or 0.1%] was instilled into the eye of the patients. At 8 hr after the instillation of the eye drop, the antigen was given. Three minutes later, itchiness of the eye was evaluated in the same manner as in Method 1, and the average value (without pre-administration) of itchiness was determined. […] At least one week was allowed to lapse from the test of Method 2, and FK506 eye drop was instilled into the eye of the patients once a day for one week. At 16 hr after the last instillation of the eye drop, the antigen was given. Three minutes later, itchiness of the eye was evaluated in the same manner as in Method 1, and the average value (with pre-administration) of itchiness was determined.

Structure (SMILES): C=CC[C@@H]1/C=C(\C)C[C@H](C)C[C@H](OC)[C@H]2O[C@@](O)(C(=O)C(=O)N3CCCC[C@H]3C(=O)O[C@H](/C(C)=C/[C@@H]3CC[C@@H](O)[C@H](OC)C3)[C@H](C)[C@@H](O)CC1=O)[C@H](C)C[C@@H]2OC [FK506, 17-allyl-1,14-dihydroxy-12-[2-(4-hydroxy-3-methoxycyclohexyl)-1-methylvinyl]-23,25-dimethoxy-13,19,21,27-tetramethyl-11,28-dioxa-4-azatricyclo-[22.3.1.0^4,9]octacos-18-ene-2,3,10,16-tetraone]
- improvement rate of the group with pre-administration after 16 hr compared with the group without pre-administration after 8 hr (0.1% concentration groups): markedly higher
- improvement (%) of group with pre-administration (FK506 eye drop 0.03%): 61.54%
- improvement (%) of group with pre-administration (FK506 eye drop 0.06%): 65.52%
- improvement (%) of group with pre-administration (FK506 eye drop 0.1%): 72.41%
- improvement (%) of group without pre-administration (FK506 eye drop (suspension) 0.03%): 25.93%
- improvement (%) of group without pre-administration (FK506 eye drop (suspension) 0.06%): 40.00%
- improvement (%) of group without pre-administration (FK506 eye drop (suspension) 0.1%): 56.67%
- improvement effect on the itchiness by setting a leading period for pre-administration (with versus without pre-administration, all concentrations): strikingly enhanced
